System: 292921-168-R tumor spheroid viability
Test: Anticancer human tumor 292921-168-R patient-derived pancreatic carcinoma cell line growth inhibition
Details: spheroids with HUVEC and MSC; for IC50: curve of first compound; for viability, T/C: stronger effect = lower value
Method in brief: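 Complex tumor spheroids combined malignant cells with endothelial cells and mesenchymal stem cells. DNA-damaging drugs and DNA repair inhibitors were tested alone and in combination, at half-log dilutions down from clinical Cmax (top 10 microM if Cmax unknown), 0.25% DMSO final.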

[1] = second compound 30 pM, first compound 0.0316 µM
[2] = second compound 30 pM, first compound 0.1 µM
[3] = second compound 30 pM, first compound 0.316 µM
[4] = second compound 30 pM, first compound 1 µM
[5] = second compound 30 pM, first compound 3.16 µM
[6] = second compound 30 pM, first compound 10 µM
[7] = second compound 94.9 pM, first compound 0.0316 µM
[8] = second compound 94.9 pM, first compound 0.1 µM
[9] = second compound 94.9 pM, first compound 0.316 µM
[10] = second compound 94.9 pM, first compound 1 µM
[11] = second compound 94.9 pM, first compound 3.16 µM
[12] = second compound 94.9 pM, first compound 10 µM
[13] = second compound 0.0003 µM, first compound 0.0316 µM
[14] = second compound 0.0003 µM, first compound 0.1 µM
[15] = second compound 0.0003 µM, first compound 0.316 µM
[16] = second compound 0.0003 µM, first compound 1 µM
[17] = second compound 0.0003 µM, first compound 3.16 µM
[18] = second compound 0.0003 µM, first compound 10 µM
[19] = second compound 0.000949 µM, first compound 0.0316 µM
[20] = second compound 0.000949 µM, first compound 0.1 µM
[21] = second compound 0.000949 µM, first compound 0.316 µM
[22] = second compound 0.000949 µM, first compound 1 µM
[23] = second compound 0.000949 µM, first compound 3.16 µM
[24] = second compound 0.000949 µM, first compound 10 µM
[25] = second compound 0.003 µM, first compound 0.0316 µM
[26] = second compound 0.003 µM, first compound 0.1 µM
[27] = second compound 0.003 µM, first compound 0.316 µM
[28] = second compound 0.003 µM, first compound 1 µM
[29] = second compound 0.003 µM, first compound 3.16 µM
[30] = second compound 0.003 µM, first compound 10 µM
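Further: spheroids exposed to compounds for 7 days.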

CNCc1ccc(-c2cc(-c3nc(-c4ccc(S(=O)(=O)C(C)C)cc4)cnc3N)on2)cc1 + Cn1nnc2c(C(N)=O)ncn2c1=O
IC50 (second compound 1 µM): 0.205 µM
IC50 (second compound 3.16 µM): 0.212 µM
IC50 (second compound 10 µM): 0.214 µM
IC50 (second compound 31.6 µM): 0.178 µM
IC50 (second compound 100 µM): 0.136 µM
viability, T/C (second compound 1 µM, first compound 0.00949 µM): 90%
viability, T/C (second compound 1 µM, first compound 0.03 µM): 85.7%
viability, T/C (second compound 1 µM, first compound 0.0949 µM): 70.7%
viability, T/C (second compound 1 µM, first compound 0.3 µM): 37.7%
viability, T/C (second compound 1 µM, first compound 0.949 µM): 23.1%
viability, T/C (second compound 1 µM, first compound 3 µM): 9.35%
viability, T/C (second compound 3.16 µM, first compound 0.00949 µM): 97.1%
viability, T/C (second compound 3.16 µM, first compound 0.03 µM): 92.8%
viability, T/C (second compound 3.16 µM, first compound 0.0949 µM): 67.9%
viability, T/C (second compound 3.16 µM, first compound 0.3 µM): 41.9%
viability, T/C (second compound 3.16 µM, first compound 0.949 µM): 22%
viability, T/C (second compound 3.16 µM, first compound 3 µM): 12%
viability, T/C (second compound 10 µM, first compound 0.00949 µM): 96.4%
viability, T/C (second compound 10 µM, first compound 0.03 µM): 88.6%
viability, T/C (second compound 10 µM, first compound 0.0949 µM): 71.7%
viability, T/C (second compound 10 µM, first compound 0.3 µM): 40.2%
viability, T/C (second compound 10 µM, first compound 0.949 µM): 20.4%
viability, T/C (second compound 10 µM, first compound 3 µM): 9.2%
viability, T/C (second compound 31.6 µM, first compound 0.00949 µM): 91.6%
viability, T/C (second compound 31.6 µM, first compound 0.03 µM): 79.2%
viability, T/C (second compound 31.6 µM, first compound 0.0949 µM): 72.2%
viability, T/C (second compound 31.6 µM, first compound 0.3 µM): 31.6%
viability, T/C (second compound 31.6 µM, first compound 0.949 µM): 17.2%
viability, T/C (second compound 31.6 µM, first compound 3 µM): 8.61%
viability, T/C (second compound 100 µM, first compound 0.00949 µM): 81.9%
viability, T/C (second compound 100 µM, first compound 0.03 µM): 82.3%
viability, T/C (second compound 100 µM, first compound 0.0949 µM): 61.5%
viability, T/C (second compound 100 µM, first compound 0.3 µM): 23.9%
viability, T/C (second compound 100 µM, first compound 0.949 µM): 13.1%
viability, T/C (second compound 100 µM, first compound 3 µM): 7.83%

Cc1cc(C)c(CNC(=O)c2cc(-c3ccc(CN4CCOCC4)cc3)cc3c2cnn3C2CCCC2)c(=O)[nH]1 + COc1cc2c(cc1O)CCNC21CSC2c3c(OC(C)=O)c(C)c4c(c3C(COC1=O)N1C(O)C3Cc5cc(C)c(OC)c(O)c5C(C21)N3C)OCO4
IC50 (second compound 30 pM): > 10 µM
IC50 (second compound 94.9 pM): > 10 µM
IC50 (second compound 0.0003 µM): 0.629 µM
IC50 (second compound 0.000949 µM): < 0.0316 µM
IC50 (second compound 0.003 µM): < 0.0316 µM
viability, T/C [1]: 99.1%
viability, T/C [2]: 113%
viability, T/C [3]: 110%
viability, T/C [4]: 109%
viability, T/C [5]: 101%
viability, T/C [6]: 84.2%
viability, T/C [7]: 97.7%
viability, T/C [8]: 107%
viability, T/C [9]: 108%
viability, T/C [10]: 102%
viability, T/C [11]: 101%
viability, T/C [12]: 78%
viability, T/C [13]: 50%
viability, T/C [14]: 55.4%
viability, T/C [15]: 47.4%
viability, T/C [16]: 49%
viability, T/C [17]: 48%
viability, T/C [18]: 40.5%
viability, T/C [19]: 5.06%
viability, T/C [20]: 5.13%
viability, T/C [21]: 5.06%
viability, T/C [22]: 3.5%
viability, T/C [23]: 3.21%
viability, T/C [24]: 4.34%
viability, T/C [25]: 0.15%
viability, T/C [26]: 0.18%
viability, T/C [27]: 0.17%
viability, T/C [28]: 0.15%
viability, T/C [29]: 0.17%
viability, T/C [30]: 0.23%

CC(C)n1c(=O)n(C)c2cnc3cc(F)c(-c4ccc(OCCCN5CCCCC5)nc4)cc3c21 + COc1cc2c(cc1O)CCNC21CSC2c3c(OC(C)=O)c(C)c4c(c3C(COC1=O)N1C(O)C3Cc5cc(C)c(OC)c(O)c5C(C21)N3C)OCO4
IC50 (second compound 30 pM): 3.53 µM
IC50 (second compound 94.9 pM): < 0.0316 µM
IC50 (second compound 0.0003 µM): < 0.0316 µM
IC50 (second compound 0.000949 µM): < 0.0316 µM
IC50 (second compound 0.003 µM): < 0.0316 µM
viability, T/C [1]: 52.2%
viability, T/C [2]: 64.9%
viability, T/C [3]: 60%
viability, T/C [4]: 64%
viability, T/C [5]: 49.6%
viability, T/C [6]: 28.1%
viability, T/C [7]: 39.2%
viability, T/C [8]: 36%
viability, T/C [9]: 39%
viability, T/C [10]: 35.8%
viability, T/C [11]: 38.6%
viability, T/C [12]: 23.9%
viability, T/C [13]: 20.9%
viability, T/C [14]: 21.3%
viability, T/C [15]: 20.8%
viability, T/C [16]: 24.8%
viability, T/C [17]: 29.4%
viability, T/C [18]: 19.5%
viability, T/C [19]: 2.03%
viability, T/C [20]: 2.57%
viability, T/C [21]: 2.94%
viability, T/C [22]: 4.97%
viability, T/C [23]: 7.02%
viability, T/C [24]: 5.36%
viability, T/C [25]: 0.16%
viability, T/C [26]: 0.18%
viability, T/C [27]: 0.2%
viability, T/C [28]: 0.15%
viability, T/C [29]: 0.13%
viability, T/C [30]: 0.22%
